Laboratory results: patent publication US20110207773A1, “NOVEL PHENYL-QUINOLINE-CARBOXYLIC ACID PYRIDINE DERIVATIVES USEFUL AS MODULATORS OF NICOTINIC ACETYLCHOLINE RECEPTORS” (NEUROSEARCH A/S, priority 2008, published 2011)

Legend:
[1] = target: T1, wild-type nAChR α7 receptors (Homo sapiens, UniProt P36544); experiment: Positive modulation of nAChR α7 currents in Xenopus laevis oocytes, two-electrode voltage clamp; format: cell-based; details: nAChR α7 expressed in Xenopus laevis oocytes, clamped at −60 mV, 100 μM acetylcholine; for Emax: (test-control)/control×100%, read-out: calculated EC50 Imax (maximal modulation of the control response); for EC50: test compound 0.01-31.6 μM, read-out: calculated EC50 (positive modulation of acetylcholine-induced current)
T1 construct: expressed in transfected cells; host or cells: Xenopus laevis oocytes
Protocol: In this example the positive modulation of wild-type nAChR α7 receptors by Compounds 4 and 5, representative of the invention, was determined using nAChR α7 receptors heterologously expressed in Xenopus laevis oocytes.
The electrical current through the nAChR α7 channel was measured using conventional two-electrode voltage clamp and nAChR α7 currents were activated by applying pulses of agonist-containing solution onto the nAChR α7 expressing oocyte.
In brief, the oocytes were placed in a recording chambers and continuously super-fused with an Oocyte Ringer (OR) solution containing 90 mM NaCl, 2.5 mM KCl, 2.5 mM CaCl2, 1 mM MgCl2 and 5 mM HEPES (pH adjusted to 7.4). The oocytes were clamped at −60 mV and currents were induced by applying 20 s pulses of 100 μM acetylcholine dissolved in OR. The intervals between the acetylcholine applications were 5 minutes, during which the oocytes were washed with OR. The first three applications were control applications to insure a constant response level of 100 μM acetylcholine. For the subsequent test applications, increasing concentrations (0.01-31.6 μM) of the test compound were applied 30 s before and during the acetylcholine (100 μM) application, which caused a robust increase in the acetylcholine-induced current amplitude.
The positive modulation in the presence of Compound 4 was calculated as (test-control)/control×100% and the concentration response curve for this positive modulation was fitted to the sigmoidal logistic equation: I=Imax/(1+(EC50/[compound])^n), where Imax represents the maximal modulation of the control response, EC50 is the concentration causing a half maximal response, and n is the slope coefficient.

T1 sequence (P36544 23-502): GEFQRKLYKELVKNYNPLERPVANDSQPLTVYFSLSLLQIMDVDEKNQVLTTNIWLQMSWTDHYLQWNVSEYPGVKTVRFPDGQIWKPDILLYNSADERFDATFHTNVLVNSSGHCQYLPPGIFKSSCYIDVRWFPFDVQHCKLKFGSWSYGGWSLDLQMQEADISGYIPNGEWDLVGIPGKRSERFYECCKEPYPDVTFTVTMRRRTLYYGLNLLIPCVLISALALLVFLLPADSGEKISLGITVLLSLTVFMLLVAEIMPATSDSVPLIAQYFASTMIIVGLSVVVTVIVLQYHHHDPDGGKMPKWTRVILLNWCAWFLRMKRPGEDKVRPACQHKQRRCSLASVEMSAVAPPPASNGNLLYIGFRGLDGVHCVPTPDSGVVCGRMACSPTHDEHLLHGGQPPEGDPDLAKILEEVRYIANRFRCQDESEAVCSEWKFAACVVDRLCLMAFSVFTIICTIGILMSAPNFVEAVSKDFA

In the case of `COc1ccc(-c2cc(C(=O)Nc3cccc(F)n3)c3ccccc3n2)cc1` [Compound 4, 2-(4-Methoxy-phenyl)-quinoline-4-carboxylic acid (6-fluoro-pyridin-2-yl)-amide], the Emax [1] is reported as 283% and the EC50 [1] is reported as 3700 nM.

Work on `COc1ccc(-c2cc(C(=O)Nc3cccc(F)n3)c3ccccc3n2)cc1OC` [Compound 5, 2-(3,4-Dimethoxy-phenyl)-quinoline-4-carboxylic acid (6-fluoro-pyridin-2-yl)-amide] yielded an Emax [1] of 197% and an EC50 [1] of 1200 nM.

Compound `Cc1ccc(NC(=O)c2cc(-c3ccc(Br)cc3)nc3ccccc23)nc1` [Compound 7, 2-(4-Bromo-phenyl)-quinoline-4-carboxylic acid (5-methyl-pyridin-2-yl)-amide] has a melting point of 182.4 to 183.7 °C.

For `COc1ccc(-c2cc(C(=O)Nc3cccc(F)n3)c3cccc(F)c3n2)cc1` [Compound 8, 8-Fluoro-2-(4-methoxy-phenyl)-quinoline-4-carboxylic acid (6-fluoro-pyridin-2-yl)-amide], the melting point was 201.8 to 202.8 °C.

Work on `O=C(Nc1cccc(F)n1)c1cc(-c2ccc(O)cc2)nc2c(F)cccc12` [Compound 9, 8-Fluoro-2-(4-hydroxy-phenyl)-quinoline-4-carboxylic acid (6-fluoro-pyridin-2-yl)-amide] yielded a melting point of 254 to 256 °C.

`COc1ccc(-c2cc(C(=O)Nc3cccc(F)n3)c3cc(F)ccc3n2)cc1` [Compound 10, 6-Fluoro-2-(4-methoxy-phenyl)-quinoline-4-carboxylic acid (6-fluoro-pyridin-2-yl)-amide] gave a melting point of 161.2 to 162.9 °C.

For `O=C(Nc1cccc(F)n1)c1cc(-c2ccc3c(c2)OCCO3)nc2ccccc12` [Compound 13, 2-(2,3-Dihydro-benzo[1,4]dioxin-6-yl)-quinoline-4-carboxylic acid (6-fluoro-pyridin-2-yl)-amide], the melting point was 209.9 to 210.6 °C.
